According to ChEMBL document CHEMBL3885861, “Open TG-GATES”:

Species on record: Rattus norvegicus
Assay: Open TG-GATES - Regimen: Single
Assay type: toxicity, organism-based, Sprague-Dawley
Design: regimen Single, gender Male, age 6 weeks
Conditions: in vivo, po, 400 mg/kg, route gavage, dose level High; for APTT / Bas / Eos / Fbg / Hb / Ht / Lym / MCH / MCHC / MCV / Mono / Neu / PT / Plat / RBC / Ret / WBC: tissue Blood; for KIDNEY_L / KIDNEY_R / KIDNEY_TOTAL: tissue Kidney; for LIVER: tissue Liver; for A/G / ALP / ALT / AST / BUN / CRE / Ca / Cl / DBIL / GLC / IP / K / LDH / Na / PL / RALB / TBIL / TC / TG / TP / gamma-GTP: tissue Plasma

Cc1cccc(C)c1OCC(C)N (configuration not stated) [MEXILETINE]
TERMINAL_BW (3 h): 221.2 g | APTT (3 h): 21.7 s | Bas (3 h): 0% | Eos (3 h): 1% | Fbg (3 h): 292.2 mg/dL | Hb (3 h): 12.9 g/dL | Ht (3 h): 39.9% | Lym (3 h): 75.8% | MCH (3 h): 20.5 pg | MCHC (3 h): 32.4% | MCV (3 h): 63.2 fL | Mono (3 h): 2.4% | Neu (3 h): 20.6% | PT (3 h): 16.5 s | Plat (3 h): 108.6 x10_4/uL | RBC (3 h): 632.4 x10_4/ul | Ret (3 h): 7.4% | WBC (3 h): 62.3 x10_2/uL | KIDNEY_L (3 h): 1 g | KIDNEY_R (3 h): 1.1 g | KIDNEY_TOTAL (3 h): 2.1 g | LIVER (3 h): 9.9 g | A/G (3 h): 1.3 | ALP (3 h): 1366.2 IU/L | ALT (3 h): 58.8 IU/L | AST (3 h): 87.6 IU/L | BUN (3 h): 12.2 mg/dL | CRE (3 h): 0.1 mg/dL | Ca (3 h): 10.4 mg/dL | Cl (3 h): 106 meq/L | DBIL (3 h): 0 mg/dL | GLC (3 h): 174.4 mg/dL | IP (3 h): 9.6 mg/dL | K (3 h): 4 meq/L | LDH (3 h): 168 IU/L | Na (3 h): 141 meq/L | PL (3 h): 122.6 mg/dL | RALB (3 h): 3 g/dL | TBIL (3 h): 0.028 mg/dL | TC (3 h): 72.6 mg/dL | TG (3 h): 46 mg/dL | TP (3 h): 5.4 g/dL | gamma-GTP (3 h): 1 IU/L | TERMINAL_BW (6 h): 214.8 g | APTT (6 h): 21.8 s | Bas (6 h): 0% | Eos (6 h): 0.6% | Fbg (6 h): 411.6 mg/dL | Hb (6 h): 13.6 g/dL | Ht (6 h): 42.2% | Lym (6 h): 71.2% | MCH (6 h): 20.7 pg | MCHC (6 h): 32.4% | MCV (6 h): 64 fL | Mono (6 h): 2% | Neu (6 h): 25% | PT (6 h): 16.1 s | Plat (6 h): 109.7 x10_4/uL | RBC (6 h): 660.2 x10_4/ul | Ret (6 h): 7.1% | WBC (6 h): 71.5 x10_2/uL | KIDNEY_L (6 h): 0.9 g | KIDNEY_R (6 h): 0.9 g | KIDNEY_TOTAL (6 h): 1.9 g | LIVER (6 h): 9.6 g | A/G (6 h): 1.2 | ALP (6 h): 1714.4 IU/L | ALT (6 h): 52 IU/L | AST (6 h): 84.2 IU/L | BUN (6 h): 10.2 mg/dL | CRE (6 h): 0.2 mg/dL | Ca (6 h): 10.3 mg/dL | Cl (6 h): 107.2 meq/L | DBIL (6 h): 0 mg/dL | GLC (6 h): 186.8 mg/dL | IP (6 h): 8.5 mg/dL | K (6 h): 4.2 meq/L | LDH (6 h): 190.4 IU/L | Na (6 h): 141.8 meq/L | PL (6 h): 133.2 mg/dL | RALB (6 h): 3 g/dL | TBIL (6 h): 0.02 mg/dL | TC (6 h): 80.4 mg/dL | TG (6 h): 34.8 mg/dL | TP (6 h): 5.7 g/dL | gamma-GTP (6 h): 1.6 IU/L | TERMINAL_BW (9 h): 217.6 g | APTT (9 h): 23.3 s | Bas (9 h): 0% | Eos (9 h): 0.8% | Fbg (9 h): 309.4 mg/dL | Hb (9 h): 12.7 g/dL | Ht (9 h): 39.4% | Lym (9 h): 72.8% | MCH (9 h): 20.3 pg | MCHC (9 h): 32.2% | MCV (9 h): 63 fL | Mono (9 h): 2.6% | Neu (9 h): 23% | PT (9 h): 16.1 s | Plat (9 h): 109.3 x10_4/uL | RBC (9 h): 626.4 x10_4/ul | Ret (9 h): 7.6% | WBC (9 h): 76 x10_2/uL | KIDNEY_L (9 h): 1 g | KIDNEY_R (9 h): 1 g | KIDNEY_TOTAL (9 h): 2 g | LIVER (9 h): 9.5 g | A/G (9 h): 1.3 | ALP (9 h): 1243.2 IU/L | ALT (9 h): 42.8 IU/L | AST (9 h): 65 IU/L | BUN (9 h): 8.6 mg/dL | CRE (9 h): 0.1 mg/dL | Ca (9 h): 10.3 mg/dL | Cl (9 h): 107.2 meq/L | DBIL (9 h): 0 mg/dL | GLC (9 h): 186 mg/dL | IP (9 h): 9.1 mg/dL | K (9 h): 4.2 meq/L | LDH (9 h): 146.4 IU/L | Na (9 h): 141.4 meq/L | PL (9 h): 144.8 mg/dL | RALB (9 h): 3 g/dL | TBIL (9 h): 0.026 mg/dL | TC (9 h): 81.4 mg/dL | TG (9 h): 45.4 mg/dL | TP (9 h): 5.4 g/dL | gamma-GTP (9 h): 1.4 IU/L | TERMINAL_BW (24 h): 225.6 g | APTT (24 h): 20.4 s | Bas (24 h): 0% | Eos (24 h): 1% | Fbg (24 h): 313.6 mg/dL | Hb (24 h): 13.4 g/dL | Ht (24 h): 41% | Lym (24 h): 80% | MCH (24 h): 20.5 pg | MCHC (24 h): 32.8% | MCV (24 h): 62.5 fL | Mono (24 h): 2.6% | Neu (24 h): 15.6% | PT (24 h): 16.3 s | Plat (24 h): 106 x10_4/uL | RBC (24 h): 656.8 x10_4/ul | Ret (24 h): 7.1% | WBC (24 h): 76.9 x10_2/uL | KIDNEY_L (24 h): 1 g | KIDNEY_R (24 h): 1 g | KIDNEY_TOTAL (24 h): 2 g | LIVER (24 h): 10.5 g | A/G (24 h): 1.2 | ALP (24 h): 1526.6 IU/L | ALT (24 h): 50.2 IU/L | AST (24 h): 71.4 IU/L | BUN (24 h): 14.6 mg/dL | CRE (24 h): 0.2 mg/dL | Ca (24 h): 10.6 mg/dL | Cl (24 h): 105 meq/L | DBIL (24 h): 0 mg/dL | GLC (24 h): 182.2 mg/dL | IP (24 h): 8.2 mg/dL | K (24 h): 4.2 meq/L | LDH (24 h): 170.6 IU/L | Na (24 h): 142.6 meq/L | PL (24 h): 163 mg/dL | RALB (24 h): 3.1 g/dL | TBIL (24 h): 0.004 mg/dL | TC (24 h): 89 mg/dL | TG (24 h): 120.2 mg/dL | TP (24 h): 5.6 g/dL | gamma-GTP (24 h): 1.6 IU/L
